Assay: in vitro
Settings: human, hela cells, % viability

| Structure (SMILES) | viability at 28.5 h, 10 µM |
| --- | --- |
| Cc1ccn(-c2ccc(N3CCC(OC4CCCC4)CC3)nn2)n1 [CBK306301] | 96% |
| Cc1sc(NC(=O)CN(Cc2cnn(C)c2)C(C)C)c(C#N)c1C [CBK306303] | 93.1% |
| CCCN1CCCN(c2ccc(-n3ccc(C)n3)nn2)CC1 [CBK306304] | 107% |
| Cc1nc(S(=O)(=O)N2CCC3(CCCCC3)C2)cn1C [CBK306306] | 100% |
| Cc1nn(C)c(C)c1CC(=O)NC1CCN(c2c(F)cccc2F)C1 (stereo not shown) [CBK306307] | 83.2% |
| CCCCC(=O)NC1CCN(C(=O)c2cccc(C#N)c2)CC1 [CBK306309] | 83.4% |
| Cc1nc(-c2cccnc2)[nH]c(=O)c1CC(=O)N(C)C1CCCCC1 [CBK306310] | 88.7% |
| CC(C)Oc1ncc(C(=O)Nc2cnn(CC(N)=O)c2)cc1Cl [CBK306311] | 90.4% |
| Cn1cc(CNCc2ccc(N3CCCC3)nc2)c(-c2cccnc2)n1 [CBK306312] | 105% |
| O=C(c1cc(Cl)c[nH]1)N1CCN(Cc2cc(=O)n3ccsc3n2)CC1 [CBK306313] | 92.9% |
| COc1ncccc1NC(=O)CSCC#N [CBK306314] | 108% |
| COc1ccc(C)cc1-n1ccc(C(=O)NC(C)(C)C)n1 [CBK306315] | 78.8% |
| Cn1cc(CNCC2CCN(c3ccccc3)C2)c(-c2ccncc2)n1 (stereo not shown) [CBK306317] | 94.3% |
| CNC(=O)NC(=O)C(C)NCC1(c2cc(C)ccc2OC)CCOCC1 (stereo not shown) [CBK306318] | 79.1% |
| Cc1nc(SCCn2cccn2)c2c(=O)n(C)c(=O)n(CC(C)C)c2n1 [CBK306321] | 99.1% |
| Cn1cc(NC(=O)c2ccc(CN3CCCC3=O)cc2)cn1 [CBK306322] | 89.7% |
| Cc1[nH]c(=O)c(C#N)c(C)c1CCC(=O)NCc1cn2ccccc2n1 [CBK306325] | 93% |
| OCCn1ncc2c(NCc3ccc(-n4cccn4)nc3)ncnc21 [CBK306326] | 87.8% |
| CC(C)Oc1ncc(C(=O)NCc2cccc(NC(N)=O)c2)cc1Cl [CBK306327] | 94.4% |
| Cc1nc(C(F)(F)F)ccc1C(=O)N1CCCC1c1ccc[nH]1 (stereo not shown) [CBK306328] | 107% |
| NC(=O)COc1ccc(CNC(=O)CN2CCc3ccccc32)cc1 [CBK306330] | 96.1% |
| CN(CC(=O)NCc1ccc(OCC(N)=O)cc1)C1CCCCC1 [CBK306331] | 81.7% |
| NC(=O)COc1ccc(CNC(=O)CN2CCCCCC2)cc1 [CBK306332] | 87.6% |
| Cc1ccc(NCC2CCN(Cc3cc(=O)n4ccccc4n3)C2)nc1 (stereo not shown) [CBK306334] | 80.7% |

| Structure (SMILES) | viability at 28.5 h, 10 µM |
| --- | --- |
| Cc1ccc(NCC2CCN(CC(=O)Nc3cc(C)on3)C2)nc1 (stereo not shown) [CBK306337] | 95.5% |
| CC(=O)N1CC2(CCCC2)c2c(F)cccc21 [CBK306339] | 78.2% |
| Cc1ccc2nc(CN3CCC(CNc4ccccn4)C3)cc(=O)n2c1 (stereo not shown) [CBK306340] | 83.7% |
| N#Cc1ccc(NCC(=O)Nc2ncn(Cc3cccnc3)n2)cc1 [CBK306343] | 94.3% |
| NC(=O)NC(CC(=O)N1CCCC1c1ccncc1)c1cccc(Br)c1 (stereo not shown) [CBK306345] | 92.7% |
| CS(=O)(=O)N1CCc2cc(-c3csc(C4CC4)n3)ccc21 [CBK306347] | 70.5% |
| COc1ccnc(N2CCN(C(=O)CCc3ccsc3)CC2)n1 [CBK306350] | 90.5% |
| COc1ccc(CC2CCCN2C(=O)Cn2cncn2)cc1 (stereo not shown) [CBK306351] | 97.3% |
| CC(C)c1noc(NCc2nnc3n2CCCCC3)n1 [CBK306352] | 113% |
| Cc1nc(COc2ccc(Cl)cc2)sc1C(=O)N1CCC1 [CBK306353] | 88.5% |
| CC(=O)Nc1cccc(-n2cnnc2SCC2CCOCC2)c1 [CBK306354] | 92% |
| CC1CN(C)c2ccccc2CN1C(=O)Cc1cn2ccsc2n1 (stereo not shown) [CBK306355] | 89.1% |
| Cc1noc(C(C)C)c1C(=O)NC1CCCN(c2ccn(C)n2)C1=O (stereo not shown) [CBK306356] | 75.8% |
| CC(NC(=O)N1CCC1)c1cccc(S(N)(=O)=O)c1 (stereo not shown) [CBK306357] | 91.5% |
| CC(CCO)CNS(=O)(=O)c1ccc(N2CCCC2=O)cc1 (stereo not shown) [CBK306358] | 90.5% |
| CCCc1cc(O)nc(SCCCCn2ccnc2C)n1 [CBK306359] | 107% |
| O=C(O)C1CC1C(=O)N1CC2(CCCC2)c2c(F)cccc21 (stereo not shown) [CBK306360] | 112% |
| COc1ccc(C(C)NC2CCN(c3nc(C)cs3)CC2)cc1F (stereo not shown) [CBK306362] | 94.7% |
| CN1CCN(CC(=O)Nc2cc(C(F)(F)F)ccc2Cl)C(C)(C)C1 [CBK306363] | 85.8% |
| O=C(Nc1cccc(F)c1)N1CCC(Cc2cccnc2)CC1 [CBK306369] | 87.3% |
| Cc1nn(C)c(C)c1OCC(=O)Nc1nc2c(cc1C#N)CCC2 [CBK306371] | 81% |
| CC(C)NC(=O)CCNc1ncc(C(N)=O)cc1Cl [CBK306373] | 92.9% |
| Cc1nn(C)c(C)c1OCC(=O)Nc1sc2c(c1C#N)CCC2 [CBK306374] | 79.4% |
| Cc1cc(CC(=O)N2CCN(CCNC(=O)C3CCCC3)CC2)no1 [CBK306376] | 113% |

| Structure (SMILES) | viability at 28.5 h, 10 µM |
| --- | --- |
| COCCNC(=O)CN(C)c1nc2ccccc2[nH]1 [CBK306378] | 84.6% |
| c1cn2cnnc2c(N2CCOC(c3ccsc3)C2)n1 (stereo not shown) [CBK306379] | 88.8% |
| c1csc(C2CN(c3nccn4cnnc34)CCO2)c1 (stereo not shown) [CBK306380] | 85% |
| Cc1ncc2c(n1)CCCC2NC(=O)c1ccccc1Cn1cncn1 (stereo not shown) [CBK306381] | 100% |
| O=S(=O)(Cc1cc(Cl)ccc1F)N1CCN(CCO)CC1 [CBK306385] | 80% |
| CCc1nc2ccccc2n1C1CCN(C(=O)Cc2cccnc2)CC1 [CBK306389] | 100% |
| Cn1nc(CN(Cc2ccccc2C(F)(F)F)C2CC2)[nH]c1=O [CBK306391] | 98.2% |
| O=C(NCc1ccsc1)NCC1CCN(c2ccncc2)CC1 [CBK306394] | 91.3% |
| CC(=O)Nc1cccc(C(=O)OCC(=O)N2CCCC2)c1 [CBK306395] | 91.6% |
| COCC1CCCN(S(=O)(=O)c2cnc3ccsc3c2)C1 (stereo not shown) [CBK306397] | 66.6% |
| FC(F)CN1CCN(Cc2ccc(Oc3cnccn3)cc2)CC1 [CBK306399] | 101% |
| CC(=O)Nc1c[nH]nc1C1CCCN(c2cccc(F)c2C#N)C1 (stereo not shown) [CBK306401] | 97.2% |
| CC(C)c1nc(NCc2nnc(C(C)C)n2C)nc(N(C)C)n1 [CBK306402] | 104% |
| Cc1noc(CN2CCNC(=O)C2c2ccccc2C(F)(F)F)n1 (stereo not shown) [CBK306405] | 98.2% |
| CCNC(=O)Nc1c[nH]nc1C1CCCN(c2cccc(F)c2C#N)C1 (stereo not shown) [CBK306406] | 86.5% |
| Cn1cc(CN2CCNC(=O)C2c2ccccc2C(F)(F)F)cn1 (stereo not shown) [CBK306407] | 90.4% |
| Cc1nc(-c2cc3c(s2)CCN(Cc2ccc(CO)o2)C3)cs1 [CBK306411] | 90% |
| N#Cc1ccc(NCC(=O)Nc2ncccc2O)cc1 [CBK306413] | 88.7% |
| Cc1cc(S(=O)(=O)Nc2ccccc2-c2nncn2C)c(C)o1 [CBK306414] | 85.9% |
| Cn1ccnc1CN1CCNC(=O)C1c1ccccc1C(F)(F)F (stereo not shown) [CBK306415] | 85.1% |
| c1cnc(Oc2ccc(CN3CCCC(c4cn[nH]c4)C3)cc2)cn1 (stereo not shown) [CBK306416] | 86.6% |
| Cc1ccsc1C(C)NC1CCCN(c2ccn(C)n2)C1=O (stereo not shown) [CBK306419] | 106% |
| Cc1cc(C(=O)N2CCc3c(sc4ncnc(N)c34)C2)sc1C [CBK306420] | 99.4% |
| Cc1cc(C)n(CC(=O)N2CCNC(=O)C2c2ccccc2Cl)n1 (stereo not shown) [CBK306421] | 92.6% |

| Structure (SMILES) | viability at 28.5 h, 10 µM |
| --- | --- |
| Cn1nccc1CN1CCNC(=O)C1c1ccccc1C(F)(F)F (stereo not shown) [CBK306422] | 86.9% |
| CC1CN(c2cc(CNc3nc4ccccn4c3C#N)ccn2)CCO1 (stereo not shown) [CBK306423] | 78.7% |
| CC(=O)Nc1ccc(CNc2nnc(C3CCCCC3)o2)cc1 [CBK306427] | 105% |
| Cc1noc(C)c1CC(=O)Nc1nc2c(cc1C#N)CCCC2 [CBK306429] | 97.1% |
| N#Cc1c[nH]c(C(=O)NC2CCN(C(=O)c3ccccc3)CC2)c1 [CBK306433] | 91% |
| CCNS(=O)(=O)c1ccc2c(c1)N(Cc1n[nH]c(CC)n1)CC2 [CBK306434] | 86.9% |
| Cn1cc(CC(=O)Nc2nc3c(cc2C#N)CCCC3)cn1 [CBK306436] | 90.7% |
| O=c1scnn1Cc1nc(-c2ccsc2)no1 [CBK306438] | 83.4% |
| Cc1c(CNc2nnc(C(C)(C)C)o2)cnn1C [CBK306439] | 83.5% |
| CC(C)c1noc(NCCc2cn3c(n2)CCCC3)n1 [CBK306444] | 93.5% |
| Cc1c(C(C)NCC(C)(C)N(C)C)cnn1-c1ccc(C#N)cc1 (stereo not shown) [CBK306447] | 87.7% |
| CNC(=O)CC1CCN(c2cc(C#N)ccc2C(F)(F)F)CC1 [CBK306450] | 112% |
| CC1CN(c2cc(CNc3ncccc3Cl)ccn2)CCO1 (stereo not shown) [CBK306456] | 88.3% |
| CCOC(=O)c1cnn(C2CCCN(c3ccc(C#N)nc3)C2)c1 (stereo not shown) [CBK306458] | 113% |
| CCc1ccc2c(c1)C(CCNC(=O)c1sccc1C)C(=O)N2 (stereo not shown) [CBK306459] | 88.5% |
| O=C(NCCc1cccnc1)Nc1ccc(CN2CCCC2=O)cc1 [CBK306461] | 80% |
| Cc1c(C(C)NCC(O)c2ccco2)cnn1-c1ccc(C#N)cc1 (stereo not shown) [CBK306462] | 88.4% |
| O=C(Cn1cnnn1)NCc1cccnc1OCC(F)(F)F [CBK306467] | 96.1% |
| CCC(=O)Nc1ccc(-c2csc(N3CCSCC3)n2)cc1 [CBK306469] | 87% |
| CC1CCN(S(=O)(=O)c2ccc(S(=O)(=O)Nc3ncnn3C)cc2)CC1 [CBK306470] | 92.3% |
| CC(CN(C)C(=O)c1nc(=O)[nH][nH]1)Oc1ccc(Cl)c(Cl)c1 (stereo not shown) [CBK306471] | 87.9% |
| Cc1c(C(=O)N2CCNC(=O)C2C(C)C)cnn1-c1ccc(Br)cc1 (stereo not shown) [CBK306472] | 91.5% |

Reference: paper PMC12040169 (PLOS Biology, 2025)
